{
  "source": "patent US4997816A",
  "about": "“Induction of fertile ovulation in anoestruns mares” (The University of Melbourne, priority 1985, dated 1991)",
  "type_in_all_cases": "in vivo, mare",
  "key": {"[1]": {"system": "Standardbred and Standardbred-type mares in transitional anoestrus", "description": "Delivery of GnRH was achieved via osmotic minipumps (OMP; Alza Corp., Palo Alto, CA:). These pumps are constructed of a rigid, semi-permeable membrane, inside which is suspended a water-proof bag which is filled with the substance to be infused. The neck of the bag is open to the atmosphere. Between the bag and the membrane a special osmotic solution is held. This solution causes an influx of water through the semi-permeable membrane when the OMP is placed in the body of animals. The influx of water collapses the bag at a fixed rate and the substance contained in the bag is expelled from the OMP at a steady rate. […] Seventeen Standardbred and Standardbred-type mares 3 to 9 years of age were used in the experiment, which commenced on Oct. 2, 1985, when the mares were in transitional anoestrus. The mares were divided into 2 groups. One group (n=g) was treated with an infusion of GnRH at a rate of 100 ng/kg/h delivered by subcutaneously implanted OMP for 28 days. The mares were run in paddocks during the experiment and brought into yards every 2 or 3 days, during which time oestrus detection was carried out. […] Blood samples were collected 3 times per week for determination of plasma LH and progesterone concentrations. Ultrasound echography was used to diagnose pregnancy 14 days after ovulation, and every 2 or 3 days thereafter until Day 45 of pregnancy, when the experiment was terminated."}, "[2]": {"system": "Standardbred mares in deep anoestrus", "settings": "for Proportion mares ovulating: deep anoestrus; for Proportion mares ovulating / Percentage mares ovulating: 1984", "description": "Delivery of GnRH was achieved via osmotic minipumps (OMP; Alza Corp., Palo Alto, CA:). These pumps are constructed of a rigid, semi-permeable membrane, inside which is suspended a water-proof bag which is filled with the substance to be infused. The neck of the bag is open to the atmosphere. Between the bag and the membrane a special osmotic solution is held. This solution causes an influx of water through the semi-permeable membrane when the OMP is placed in the body of animals. The influx of water collapses the bag at a fixed rate and the substance contained in the bag is expelled from the OMP at a steady rate. […] Fourteen Standardbred mares in deep anoestrus were divided into 3 groups. Group C (controls; n=5) received no treatment while Group 50 (n=5) and Group 100 (n=4) were given infusions of GnRH at rates of 50 ng/kg/h and 100 ng/kg/h respectively. The GnRH was administered via subcutaneously implanted osmotic minipumps (OMP) for 28 days. Blood samples were collected daily and ovarian palpation and oestrus detection was carried out 3 times per week or daily if a follicle >3.5 cm was detected."}, "[3]": {"system": "maiden Standardbred mares in deep winter anoestrus", "assay": "Example III: 28-day subcutaneous GnRH infusion by osmotic minipump, induction of ovulation (1985)", "settings": "for Proportion mares ovulating: deep anoestrus; for Proportion mares ovulating / Percentage mares ovulating: 1985", "description": "Delivery of GnRH was achieved via osmotic minipumps (OMP; Alza Corp., Palo Alto, CA:). These pumps are constructed of a rigid, semi-permeable membrane, inside which is suspended a water-proof bag which is filled with the substance to be infused. The neck of the bag is open to the atmosphere. Between the bag and the membrane a special osmotic solution is held. This solution causes an influx of water through the semi-permeable membrane when the OMP is placed in the body of animals. The influx of water collapses the bag at a fixed rate and the substance contained in the bag is expelled from the OMP at a steady rate. […] Sixteen maiden Standardbred mares, 3 to 6 years of age were used in the experiment which was conducted during deep winter anoestrus in 1985. The mares were in good to excellent condition and were run in 2 outside paddocks during the period of the experiment. The mares were divided into 3 groups. Group C (n=5) were untreated and acted as a control group, while Group 50 (n=5) and Group 100 (n=6) received infusions of GnRH at rates of 50 ng/kg/h and 100 ng/kg/h, respectively. The GnRH was delivered via subcutaneously implanted OMP for 28 days, starting on July 2, 1985. Ovarian palpations and oestrus detection was carried out 3 times per week or daily when an ovarian follice of >3 cm diameter was detected."}, "mares in deep anoestrus": {"system": "mares in deep anoestrus", "assay": "Combined results, deep anoestrus (1984 and 1985)", "settings": "1984 and 1985 combined", "experimental": "Fourteen Standardbred mares in deep anoestrus were divided into 3 groups. Group C (controls; n=5) received no treatment while Group 50 (n=5) and Group 100 (n=4) were given infusions of GnRH at rates of 50 ng/kg/h and 100 ng/kg/h respectively. The GnRH was administered via subcutaneously implanted osmotic minipumps (OMP) for 28 days. Blood samples were collected daily and ovarian palpation and oestrus detection was carried out 3 times per week or daily if a follicle >3.5 cm was detected. The mares were divided into 3 groups. Group C (n=5) were untreated and acted as a control group, while Group 50 (n=5) and Group 100 (n=6) received infusions of GnRH at rates of 50 ng/kg/h and 100 ng/kg/h, respectively. The GnRH was delivered via subcutaneously implanted OMP for 28 days, starting on July 2, 1985. Ovarian palpations and oestrus detection was carried out 3 times per week or daily when an ovarian follice of >3 cm diameter was detected."}, "[4]": {"system": "mares in transitional anoestrus", "assay": "Combined results, transitional anoestrus (1984 and 1985)", "settings": "100 ng/kg/h", "experimental": "The experiment commenced on Sept. 10, 1984. Mares were randomised in pairs to a Treated group or a Control group until all the mares had been assigned to groups by Sept. 21. The mares were paired on the basis of each mare having approximately equal ovarian follicular activity. Each treated mare was weighted just prior to the experiment. The dose of GnRH (100 ng/kg/hr) to be administered over 28 days was calculated and dissolved in sterile, physiological (0.9%) saline. The solution was loaded into an OMP and placed in a beaker of saline at room temperature overnight to allow for the \"start up time\" of the OMP. The mares were divided into 2 groups. One group (n=g) was treated with an infusion of GnRH at a rate of 100 ng/kg/h delivered by subcutaneously implanted OMP for 28 days. The mares were run in paddocks during the experiment and brought into yards every 2 or 3 days, during which time oestrus detection was carried out. […] Blood samples were collected 3 times per week for determination of plasma LH and progesterone concentrations. Ultrasound echography was used to diagnose pregnancy 14 days after ovulation, and every 2 or 3 days thereafter until Day 45 of pregnancy, when the experiment was terminated."}, "[5]": {"system": "Standardbred mares in transitional or \"shallow\" anoestrus", "description": "Delivery of GnRH was achieved via osmotic minipumps (OMP; Alza Corp., Palo Alto, CA:). These pumps are constructed of a rigid, semi-permeable membrane, inside which is suspended a water-proof bag which is filled with the substance to be infused. The neck of the bag is open to the atmosphere. Between the bag and the membrane a special osmotic solution is held. This solution causes an influx of water through the semi-permeable membrane when the OMP is placed in the body of animals. The influx of water collapses the bag at a fixed rate and the substance contained in the bag is expelled from the OMP at a steady rate. […] Ten young Standardbred mares of 3 to 5 years of age as judged by wear of the teeth were used in the experiment. During the experiment, the mares were fed hay twice daily and kept in a paddock. The mares were vaccinated against Tetanus and Strangles and were given regular anthelmintic and lice treatments. Their body condition during the experiment was good to very good. Ovarian palpations were carried out and blood was collected from the mares every 2 or 3 days for 4 weeks prior to commencement of the experiment. […] The experiment commenced on Sept. 10, 1984. Mares were randomised in pairs to a Treated group or a Control group until all the mares had been assigned to groups by Sept. 21. The mares were paired on the basis of each mare having approximately equal ovarian follicular activity. Each treated mare was weighted just prior to the experiment. The dose of GnRH (100 ng/kg/hr) to be administered over 28 days was calculated and dissolved in sterile, physiological (0.9%) saline. The solution was loaded into an OMP and placed in a beaker of saline at room temperature overnight to allow for the \"start up time\" of the OMP. The OMP were inserted subcutaneously in the side of the necks of the treated mares, under local infiltration anaesthesia. The pumps were retained using 1 or 2 mattress sutures in the skin. After insertion of the OMP, the treated and control mares were run as a group in a single paddock. Every 2 or 3 days the mares were brought into the yards. Ovarian palpations were carried out and blood samples were collected on these days. In addition, the mares were teased with a vigorous stallion, to detect oestrus. […] Blood samples were assayed for lutsinizing hormone (LH) and progesterone concentrations. Ultrasound echography was used to diagnose pregnancy 14 days after ovulation. Subsequent ultrasound examinations were made every 2 or 3 days until Day 45 of pregnancy, when the experiment was terminated."}, "[6]": {"settings": "Group 50, 50 ng/kg/h s.c. OMP 28 days"}, "[7]": {"settings": "Group 100, 100 ng/kg/h s.c. OMP 28 days"}},
  "note": "Where “and” joins values, the source holds several entries; their conditions need not be identical. Equal entries are not always repeated. Where two headings read alike, the source gives them in different places.",
  "data": [
    {"smiles": "CC(C)C[C@H](NC(=O)CNC(=O)[C@H](Cc1ccc(O)cc1)NC(=O)[C@H](CO)NC(=O)[C@H](Cc1c[nH]c2ccccc12)NC(=O)[C@H](Cc1c[nH]cn1)NC(=O)[C@@H]1CCC(=O)N1)C(=O)N[C@@H](CCCNC(=N)N)C(=O)N1CCC[C@H]1C(=O)NCC(N)=O", "note": "[GnRH, pGlu-His-Trp-Ser-Tyr-Gly-Leu-Arg-Pro-Gly-NH2]", "values": [
      {"measurement": "Treated mares that ovulated during the period the OMP were functional", "setting": "[1]; 100 ng/kg/h s.c. OMP 28 days, transitional anoestrus, 1985", "value": "Eight of 9"},
      {"measurement": "Average time (day) of ovulation from commencement of the experiment (x ± s.e.m.)", "setting": "[1]; 100 ng/kg/h, 1985, n=9, P<0.05 vs controls", "value": "18.6 ± 4.3 days and 18.8 ± 4.3 days"},
      {"measurement": "Mares that failed to conceive", "setting": "[1]; 100 ng/kg/h, 1985, treated group", "value": "One"},
      {"measurement": "Average day of conception from commencement of the experiment (x ± s.e.m.)", "setting": "[1]; 100 ng/kg/h, 1985, P<0.05 vs controls, one mare failed to conceive", "value": "24.4 ± 8.1", "unit": "days"},
      {"measurement": "Average time from OMP insertion to ovulation", "setting": "[2]; Group 50, 50 ng/kg/h", "value": 18.5, "unit": "days"},
      {"measurement": "Proportion mares ovulating", "setting": "[2]; [6]", "value": "2 of 5 and 2/5"},
      {"measurement": "Percentage mares ovulating", "setting": "[2]; Group 50, 50 ng/kg/h", "value": 40, "unit": "%"},
      {"measurement": "Average time from OMP insertion to ovulation", "setting": "[2]; Group 100, 100 ng/kg/h", "value": 17.3, "unit": "days"},
      {"measurement": "Proportion mares ovulating", "setting": "[2]; [7]", "value": "3 of 4 and 3/4"},
      {"measurement": "Percentage mares ovulating", "setting": "[2]; Group 100, 100 ng/kg/h", "value": 75, "unit": "%"},
      {"measurement": "Mean LH pulse frequency", "setting": "[2]; Group 100 compared to controls, Day 21", "value": "significantly (<0.05) higher"},
      {"measurement": "LH pulse amplitude", "setting": "[2]; between the 3 groups, any of the days studied", "value": "no statistical difference"},
      {"measurement": "LH pulse frequency", "setting": "[2]; between the groups, Day 28", "value": "no difference"},
      {"measurement": "Mean daily plasma LH concentrations", "setting": "[2]; both treated groups (50 and 100 ng/kg/h) compared to control mares", "value": "higher"},
      {"measurement": "LH pulse frequency", "setting": "[2]; both treated groups compared to controls, within 7 days of insertion of OMP", "value": "significantly (p<0.05) higher"},
      {"measurement": "Average time from OMP insertion to ovulation", "setting": "[3]; Group 50, 50 ng/kg/h", "value": 24, "unit": "days"},
      {"measurement": "Proportion mares ovulating", "setting": "[3]; [6]", "value": "1 of 5 and 1/5"},
      {"measurement": "Percentage mares ovulating", "setting": "[3]; Group 50, 50 ng/kg/h", "value": 20, "unit": "%"},
      {"measurement": "Average time from OMP insertion to ovulation", "setting": "[3]; Group 100, 100 ng/kg/h", "value": 21.8, "unit": "days"},
      {"measurement": "Proportion mares ovulating", "setting": "[3]; [7]", "value": "4 of 6 and 4/6"},
      {"measurement": "Percentage mares ovulating", "setting": "[3]; Group 100, 100 ng/kg/h", "value": 67, "unit": "%"},
      {"measurement": "Percentage mares ovulating", "setting": "mares in deep anoestrus; Group 50, 50 ng/kg/h", "value": 30, "unit": "%"},
      {"measurement": "Proportion mares ovulating", "setting": "mares in deep anoestrus; Group 50, 50 ng/kg/h", "value": "3/10"},
      {"measurement": "Percentage mares ovulating", "setting": "mares in deep anoestrus; Group 100, 100 ng/kg/h", "value": 70, "unit": "%"},
      {"measurement": "Proportion mares ovulating", "setting": "mares in deep anoestrus; Group 100, 100 ng/kg/h, P < .01 vs controls", "value": "7/10"},
      {"measurement": "Day of ovulation (x ± s.e.m.)", "setting": "[4]; 1984 and 1985 combined, n=14, P < .001 compared to controls", "value": "18.6 ± 3.0"},
      {"measurement": "Day of conception (x ± s.e.m.)", "setting": "[4]; 1984 and 1985 combined, n=14, P < .05 compared to controls", "value": "25.2 ± 6.0"},
      {"measurement": "Average day of ovulation earlier than the controls", "setting": "[4]; data for the 2 years combined", "value": "approximately 23 days"},
      {"measurement": "Day of conception earlier than the controls", "setting": "[4]; data for the 2 years combined", "value": 24, "unit": "days"},
      {"measurement": "Treated mares that ovulated during GnRH infusion", "setting": "[5]; 100 ng/kg/hr s.c. OMP 28 days, transitional anoestrus, 1984", "value": "Four of the 5"},
      {"measurement": "Treated mares that conceived in association with the first ovulation after insertion of the OMP", "setting": "[5]; 100 ng/kg/hr, 1984", "value": "Four of the 5"},
      {"measurement": "Day of conception (x ± s.e.m.)", "setting": "[5]; 100 ng/kg/hr, 1984, n=5, after OMP insertion, p<0.01 vs controls", "value": "26.6 ± 9.7 days and 26.6 days"},
      {"measurement": "Time (day) of ovulation from commencement of the experiment (x ± s.e.m.)", "setting": "[5]; 100 ng/kg/hr, 1984, n=5, p<0.01 vs controls", "value": "18.6 ± 4.1 days and 18.6 days"}
    ]}
  ]
}
